Legend:
Japanese medaka = settings: cited from earlier work
medaka ARβ (mARβ) = medaka ARβ (mARβ) (Oryzias latipes, UniProt D1MV73); assay: Medaka ARβ reporter gene assay (RGA), antagonist assay with 50 nM 11KT, HepG2 cells; assay type: cell-based, Japanese medaka (Oryzias latipes); settings: mARβ RGA antagonist assay, 50 nM 11KT-induced activity; ND = no significant response even at the highest assay concentration (in parentheses)
Method: To support interpretation of the biological effects observed in the FSTRA studies, in vitro RGAs using medaka Esr1 (mEsr1) and medaka ARβ (mARβ) were performed for the 16 test chemicals. In the present study, Esr1 and ARβ, which are ancestral subtypes among Esrs and ARs in Japanese medaka, were selected based on the phylogenetical analyses of Esr and AR with each receptor RGAs (Ogino et al., [2016], [2018]; Tohyama et al., [2015]).
The mARβ RGA in which the agonist and the antagonist assays were performed as same as the mEsr1 RGA was carried out according to the methods previously reported by Lange et al. ([2015]). For the assays, human liver cancer cell line, HepG2, was used as the host cells, and mARβ/pcDNA3.1, MMTV‐Luc, and pRL‐TK‐Rlu were used as mARβ expression vector, reporter vector, and internal control vector, respectively. Other materials and methods, for example, operating procedure, reagents, and incubation conditions, were almost the same as the mEsr1 RGA previously described beside that 11KT (Sigma‐Aldrich, purity 99.0%), a main AR ligand in fish, was competitively spiked at 50 nM into the test medium with test chemicals in antagonist assay. In the agonist and the antagonist assays, 11KT and 2‐hydroxyflutamide (2HFLT; Sigma‐Aldrich, purity 98.5%) were used as positive controls, respectively.
Effect concentrations, that is, EC50 (a half maximal effective concentration) in the agonist assay and IC50 (a half maximal inhibitory concentration) in the antagonist assay, were estimated by nonlinear curve fitting (e.g., three parameters logistic regression curve) using GraphPad Prism (GraphPad Software Inc., La Jolla, CA, USA).

[1] = P4 concentration in test solutions with and without UV irradiation (biodegradation check); assay type: physicochemical

medaka ARβ (mARβ), sequence (D1MV73 entry or part of it): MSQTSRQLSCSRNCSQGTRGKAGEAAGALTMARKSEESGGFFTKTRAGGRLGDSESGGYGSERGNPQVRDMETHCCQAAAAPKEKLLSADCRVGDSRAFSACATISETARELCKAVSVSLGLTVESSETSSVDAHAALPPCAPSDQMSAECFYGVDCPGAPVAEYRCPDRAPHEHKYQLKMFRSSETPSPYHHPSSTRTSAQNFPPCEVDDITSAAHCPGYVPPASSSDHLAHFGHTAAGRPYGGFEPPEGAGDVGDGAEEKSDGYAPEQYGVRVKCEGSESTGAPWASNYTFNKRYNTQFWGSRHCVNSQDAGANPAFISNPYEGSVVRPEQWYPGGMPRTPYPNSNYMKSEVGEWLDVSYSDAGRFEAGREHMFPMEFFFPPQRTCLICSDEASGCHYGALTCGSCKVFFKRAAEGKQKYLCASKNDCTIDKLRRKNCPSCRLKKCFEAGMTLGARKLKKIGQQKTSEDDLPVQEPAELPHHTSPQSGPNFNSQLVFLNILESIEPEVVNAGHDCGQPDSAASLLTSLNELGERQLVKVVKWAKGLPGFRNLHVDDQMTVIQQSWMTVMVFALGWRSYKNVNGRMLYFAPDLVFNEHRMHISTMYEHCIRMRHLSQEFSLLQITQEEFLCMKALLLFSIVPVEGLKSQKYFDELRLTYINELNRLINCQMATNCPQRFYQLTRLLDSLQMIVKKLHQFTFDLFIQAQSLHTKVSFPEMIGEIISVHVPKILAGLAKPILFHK

C[C@]12C=CC3=C4CCC(=O)C=C4CC[C@H]3[C@@H]1CC[C@@H]2O [TRB, 17β‐Trenbolone]
concentration causing reduction of reproduction (Japanese medaka; in vivo): 13 ng/L
concentration causing induction of SSC in females (Japanese medaka; long-term testing, ref Flynn et al., 2017): 32 ng/L

C#C[C@]1(O)CC[C@H]2[C@@H]3CCc4cc(O)ccc4[C@H]3CC[C@@]21C [EE2, 17α‐Ethynylestradiol]
IC50 (medaka ARβ (mARβ)): 140 nM

CC(=O)[C@H]1CC[C@H]2[C@@H]3CCC4=CC(=O)CC[C@]4(C)[C@H]3CC[C@]12C [P4, Progesterone]
P4 concentration, % of the nominal ([1]; test solution after 24-h UV treatment): more than 80 % of the nominal
P4 concentration, % of the nominal ([1]; test solution without UV treatment): less than 20 % of the nominal

CCCCCCCCCCCCOS(=O)(=O)[O-].[Na+] [SDS, Sodium dodecyl sulfate]
IC50 (medaka ARβ (mARβ)): > 100000 nM

Source: article PMC8359193, “Summary of reference chemicals evaluated by the fish short‐term reproduction assay, OECD TG229, using Japanese Medaka, Oryzias latipes” (Journal of Applied Toxicology, 2021)
